Data reported in PubChem BioAssay (NCI).
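Growth conditions: 96-well plates. Treatment: test compound, 48 hours, 5 concentrations. Analysis: linear interpolation between bracketing concentrations; unreached endpoints set to highest concentration. GI50 marks 50% less growth. TGI marks complete inhibition of growth.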

What was measured:
Assay in all cases: DTP human tumour cell line panel, 48 h
HCT-116 colon = tested on: HCT-116 colon
OVCAR-4 ovarian = tested on: OVCAR-4 ovarian
A549 NSCLC = tested on: A549 NSCLC
SF-539 CNS = tested on: SF-539 CNS
ACHN renal = tested on: ACHN renal
786-0 renal = tested on: 786-0 renal
OVCAR-5 ovarian = tested on: OVCAR-5 ovarian
UO-31 renal = tested on: UO-31 renal
MOLT-4 leukemia = tested on: MOLT-4 leukemia
MALME-3M melanoma = tested on: MALME-3M melanoma
SK-MEL-5 melanoma = tested on: SK-MEL-5 melanoma
NCI-H226 lung = tested on: NCI-H226 lung
SNB-75 CNS = tested on: SNB-75 CNS
CAKI-1 renal = tested on: CAKI-1 renal
LOX IMVI melanoma = tested on: LOX IMVI melanoma
SN12C renal = tested on: SN12C renal
HCT-15 colon = tested on: HCT-15 colon
PC-3 prostate = tested on: PC-3 prostate
NCI-H23 lung = tested on: NCI-H23 lung
HT29 colon = tested on: HT29 colon
SF-295 CNS = tested on: SF-295 CNS
HL-60(TB) leukemia = tested on: HL-60(TB) leukemia
OVCAR-3 ovarian = tested on: OVCAR-3 ovarian
COLO 205 colon = tested on: COLO 205 colon
UACC-62 melanoma = tested on: UACC-62 melanoma
SR leukemia = tested on: SR leukemia
DU-145 prostate = tested on: DU-145 prostate
K-562 leukemia = tested on: K-562 leukemia

For NC(=Nc1ccc(OCCCCCCCCn2cnnn2)cc1)c1ccccc1, the GI50 (HCT-116 colon) was 353 nM, the TGI (HCT-116 colon) was 13800 nM and the GI50 (OVCAR-4 ovarian) was 12400 nM. For the same compound, the TGI (OVCAR-4 ovarian) was > 100000 nM, the GI50 (A549 NSCLC) was 586 nM and the TGI (A549 NSCLC) was > 100000 nM. It also gave a GI50 (SF-539 CNS) of 223 nM, a TGI (SF-539 CNS) of 606 nM and a GI50 (ACHN renal) of 659 nM. It also gave a TGI (ACHN renal) of 62000 nM, a GI50 (786-0 renal) of 507 nM and a TGI (786-0 renal) of 30900 nM. The GI50 (OVCAR-5 ovarian) was 458 nM, the TGI (OVCAR-5 ovarian) was > 41500 nM and the GI50 (UO-31 renal) was 555 nM. For the same compound, the TGI (UO-31 renal) was 40800 nM, the GI50 (MOLT-4 leukemia) was 460 nM and the TGI (MOLT-4 leukemia) was > 72200 nM. It also gave a GI50 (MALME-3M melanoma) of 266 nM, a TGI (MALME-3M melanoma) of 18200 nM and a GI50 (SK-MEL-5 melanoma) of 282 nM. It also gave a TGI (SK-MEL-5 melanoma) of 1420 nM, a GI50 (NCI-H226 lung) of 321 nM and a TGI (NCI-H226 lung) of 4550 nM. It also gave a GI50 (SNB-75 CNS) of 400 nM, a TGI (SNB-75 CNS) of 50200 nM and a GI50 (CAKI-1 renal) of 324 nM. For the same compound, the TGI (CAKI-1 renal) was 46100 nM, the GI50 (LOX IMVI melanoma) was 488 nM and the TGI (LOX IMVI melanoma) was 13900 nM. The GI50 (SN12C renal) was 472 nM, the TGI (SN12C renal) was 18200 nM and the GI50 (HCT-15 colon) was 272 nM. The TGI (HCT-15 colon) was 15400 nM, the GI50 (PC-3 prostate) was 454 nM and the TGI (PC-3 prostate) was 97700 nM. It also gave a GI50 (NCI-H23 lung) of 436 nM, a TGI (NCI-H23 lung) of 20100 nM and a GI50 (HT29 colon) of 269 nM. For the same compound, the TGI (HT29 colon) was 2260 nM, the GI50 (SF-295 CNS) was 281 nM and the TGI (SF-295 CNS) was 12400 nM. It also gave a GI50 (HL-60(TB) leukemia) of 246 nM, a TGI (HL-60(TB) leukemia) of 846 nM and a GI50 (OVCAR-3 ovarian) of 398 nM. The TGI (OVCAR-3 ovarian) was > 52000 nM, the GI50 (COLO 205 colon) was 284 nM and the TGI (COLO 205 colon) was 1860 nM. It also gave a GI50 (UACC-62 melanoma) of 442 nM, a TGI (UACC-62 melanoma) of 19900 nM and a GI50 (SR leukemia) of 75.2 nM. The TGI (SR leukemia) was > 50500 nM, the GI50 (DU-145 prostate) was 438 nM and the TGI (DU-145 prostate) was > 100000 nM. The GI50 (K-562 leukemia) was 183 nM.
